Our source for the IC50 and melting point values is publication PMC9490060, “Synthesis and evaluation of anticancer activity of quillaic acid derivatives: A cell cycle arrest and apoptosis inducer through NF-κB and MAPK pathways” (Frontiers in Chemistry, 2022).

For series [1], the system named is BEL7402 (human hepatocellular carcinoma cell line). The series can be described thus: MTT anti-proliferative assay, BEL7402. The series is classed as cell-based. The settings on record: Homo sapiens, Bel-7402, 48 h incubation, means ± SD, n = 3. The text has this: (§1) The anti-proliferative activities against five human cancer cell lines, including HCT116 (human colorectal cancer cell line), MCF-7 (human breast cancer cell line), SW620 (human colorectal cancer cell line), BEL7402 (human hepatocellular carcinoma cell line), and HepG2 (human hepatocellular carcinoma cell line) were established for all the target compounds using the MTT assay.
(§2) The propidium iodide (PI) and Annexin V-FITC apoptosis detection kit were purchased from Invitrogen (Eugene, OR, United States). 3-(4,5-Dimethylthiazol-2-yl)-2,5-diphenyl-2H-tetrazolium bromide (MTT) was purchased from Sigma-Aldrich Co. (St. Louis, MO, United States). All human cell lines were used in this study, colorectal cancer cell HCT116, colorectal cancer cell SW620, breast cancer cell MCF-7, liver hepatocellular carcinoma cell BEL7402, liver hepatocellular carcinoma HepG2 and normal liver cell L02 were initially purchased from American Type Culture Collection (ATCC, Manassas, VA, United States). RPMI-1640 media, Dulbecco’s modified Eagle’s medium (DMEM), and foetal bovine serum (FBS) were provided from Gibco Company (Grand Island, NY, United States). Cell line MCF-7 and HepG2 were cultivated in DMEM containing 10% (v/v) heat-inactivated FBS, 100 units/ml penicillin and […] streptomycin (Grand Island, NY, United States). Cell lines HCT116, BEL7402, SW620, and L02 were cultivated in RPMI 1640 medium containing 10% (v/v) heat-inactivated FBS, 100 units/ml penicillin, and […] streptomycin. The cells were incubated at 37°C under a 5% CO2 and 90% relative humidity (RH) atmosphere.
(§3) Stock solutions were prepared by diluting target compounds in DMSO at concentrations (1.25, 2.5, 5, and 10 mM). The stock solution was then diluted (1.25, 2.5, 5, and 10 μM) with culture medium, and the concentration of DMSO was controlled not to exceed 0.1%.
(§4) Place the cells in a 96-well plate at an appropriate density to ensure exponential growth (1 × 10^4–1.2×10^4 cells per well) throughout the experiment, and then allow the cells to adhere for 24 h. The cells were then treated with continuous concentrations of each compound (1.25, 2.5, 5, and 10 μM) for 48 h. After 48 h of incubation, 15 μl of MTT solution was added to each well, and the final concentration was 2 mg/ml. Then incubate for another 4 h. After incubation, remove the MTT solution and add […] of DMSO to each well for staining. Shake vigorously for 10 min at room temperature to ensure complete dissolution. The optical density (OD) was read on a microplate reader (ELx 800, BioTek, Highland Park, Winooski, VT, United States) with a wavelength of 492 nm, and then the data was analyzed.

Series [2] has as its system HepG2 (human hepatocellular carcinoma cell line). The series is described as follows: MTT anti-proliferative assay, HepG2. It counts as cell-based. The following applies: Homo sapiens, HepG2, 48 h incubation, means ± SD, n = 3.
Description: as §1, §2, §3, §4

The test system of series [3] is HCT116 (human colorectal cancer cell line). The series is described as follows: MTT anti-proliferative assay, HCT116. The series is classed as cell-based. The settings on record: Homo sapiens, HCT-116, 48 h incubation, means ± SD, n = 3.
Description: as §1, §2, §3, §4

For series [4], the system named is MCF-7 (human breast cancer cell line). The series is described as follows: MTT anti-proliferative assay, MCF-7. It counts as cell-based. The following applies: Homo sapiens, MCF7, 48 h incubation, means ± SD, n = 3.
Description: as §1, §2, §3, §4

Series [5] has as its system SW620 (human colorectal cancer cell line). The series is described as follows: MTT anti-proliferative assay, SW620. The settings on record: Homo sapiens, SW-620, 48 h incubation, means ± SD, n = 3. It counts as cell-based.
Description: as §1, §2, §3, §4

On to `COc1ccc(-c2nnc(COC(=O)[C@]34CCC(C)(C)C[C@H]3C3=CC[C@@H]5[C@@]6(C)CC[C@H](O)[C@@](C)(C=O)[C@@H]6CC[C@@]5(C)[C@]3(C)C[C@H]4O)o2)cc1` [Compound B4, (5-(4-methoxyphenyl)-1,3,4-oxadiazol-2-yl)methyl (4aR,5R,6aS,6bR,8aR,9S,10S,12aR,12bR,14bS)-9-formyl-5,10-dihydroxy-2,2,6a,6b,9,12a-hexamethyl-1,3,4,5,6,6a,6b,7,8,8a,9,10,11,12,12a,12b,13,14b-octadecahydropicene-4a (2H)-carboxylate], for which the melting point lay within 126 to 128 °C. Also, in series [1], the midpoint of inhibition, the IC50, lay at 9.15 ± 2.21 µM. Inhibition in series [2] was half-maximal at 8.38 ± 2.22 µM (IC50). The same compound came in with an IC50 in series [3] of 3.65 ± 1.06 µM. Also, the IC50 in series [4] is above 10 µM. The compound further showed an IC50 in series [5] of 7.23 ± 1.56 µM.
In the case of `CC1(C)CC[C@]2(C(=O)O)[C@H](O)C[C@]3(C)C(=CC[C@@H]4[C@@]5(C)CC[C@H](O)[C@@](C)(C=O)[C@@H]5CC[C@]43C)[C@@H]2C1` [QA, quillaic acid], the half-inhibitory concentration (IC50) in series [1], in series [2], in series [3], in series [4] and in series [5] was above 10 µM each time.
Turning to `COc1cc(-n2cnn(CCOC(=O)[C@]34CCC(C)(C)C[C@H]3C3=CC[C@@H]5[C@@]6(C)CC[C@H](O)[C@@](C)(C=O)[C@@H]6CC[C@@]5(C)[C@]3(C)C[C@H]4O)c2=O)cc(OC)c1OC` [Compound C6, 2-(5-oxo-4-(3,4,5-trimethoxyphenyl)-4,5-dihydro-1H-1,2,4-triazol-1-yl)ethyl (4aR,5R,6aS,6bR,8aR,9S,10S,12aR,12bR,14bS)-9-formyl-5,10-dihydroxy-2,2,6a,6b,9,12a-hexamethyl-1,3,4,5,6,6a,6b,7,8,8a,9,10,11,12,12a,12b,13,14b-octadecahydropicene-4a (2H)-carboxylate], the IC50 was above 10 µM in series [1]; above 10 µM in series [2]; 5.6 ± 1.55 µM in series [3]; above 10 µM in series [4]; 7.35 ± 1.7 µM in series [5].
Compound `CC1(C)CC[C@]2(C(=O)OCc3cn(-c4ccc(Cl)cc4)nn3)[C@H](O)C[C@]3(C)C(=CC[C@@H]4[C@@]5(C)CC[C@H](O)[C@@](C)(C=O)[C@@H]5CC[C@]43C)[C@@H]2C1` [Compound A3, (1-(4-chlorophenyl)-1H-1,2,3-triazol-4-yl)methyl (4aR,5R,6aS,6bR,8aR,9S,10S,12aR,12bR,14bS)-9-formyl-5,10-dihydroxy-2,2,6a,6b,9,12a-hexamethyl-1,3,4,5,6,6a,6b,7,8,8a,9,10,11,12,12a,12b,13,14b-octadecahydropicene-4a (2H)-carboxylate] returned a melting point of 193 to 194 °C. The 50% inhibitory concentration (IC50) in series [1] was above 10 µM. This compound also registered an IC50 in series [2] above 10 µM. In series [3], this compound yielded an IC50 above 10 µM. In series [4], this compound yielded a half-maximal inhibitory concentration (IC50) above 10 µM. The same compound had an IC50 in series [5] above 10 µM.
In the case of `COc1cc(-n2cc(COC(=O)[C@]34CCC(C)(C)C[C@H]3C3=CC[C@@H]5[C@@]6(C)CC[C@H](O)[C@@](C)(C=O)[C@@H]6CC[C@@]5(C)[C@]3(C)C[C@H]4O)nn2)cc(OC)c1OC` [Compound A8, (1-(3,4,5-trimethoxyphenyl)-1H-1,2,3-triazol-4-yl)methyl (4aR,5R,6aS,6bR,8aR,9S,10S,12aR,12bR,14bS)-9-formyl-5,10-dihydroxy 2,2,6a,6b,9,12a-hexamethyl-1,3,4,5,6,6a,6b,7,8,8a,9,10,11,12,12a,12b,13,14b octadecahydropicene-4a (2H)-carboxylate], the IC50 in series [1], in series [2], in series [3], in series [4] and in series [5] was above 10 µM throughout.
In the case of `CC1(C)CC[C@]2(C(=O)OCCn3ncn(-c4ccc(Cl)c(Cl)c4)c3=O)[C@H](O)C[C@]3(C)C(=CC[C@@H]4[C@@]5(C)CC[C@H](O)[C@@](C)(C=O)[C@@H]5CC[C@]43C)[C@@H]2C1` [Compound C4, 2-(4-(3,4-dichlorophenyl)-5-oxo-4,5-dihydro-1H-1,2,4-triazol-1-yl)ethyl (4aR,5R,6aS,6bR,8aR,9S,10S,12aR,12bR,14bS)-9-formyl-5,10-dihydroxy-2,2,6a,6b,9,12a-hexamethyl-1,3,4,5,6,6a,6b,7,8,8a,9,10,11,12,12a,12b,13,14b-octadecahydropicene-4a (2H)-carboxylate], the melting point was in the range of 187 to 189 °C. For the same compound, in series [1], the 50% inhibitory concentration (IC50) was above 10 µM. For the same compound, in series [2], the half-maximal inhibitory concentration (IC50) is above 10 µM. The same compound gave an IC50 in series [3] above 10 µM. Besides, the IC50 in series [4] was above 10 µM. In series [5], the concentration for half-maximal inhibition (IC50) was above 10 µM.
The compound `CC1(C)CC[C@]2(C(=O)OCc3cn(-c4ccc(Cl)c(Cl)c4)nn3)[C@H](O)C[C@]3(C)C(=CC[C@@H]4[C@@]5(C)CC[C@H](O)[C@@](C)(C=O)[C@@H]5CC[C@]43C)[C@@H]2C1` [Compound A4, (1-(3,4-dichlorophenyl)-1H-1,2,3-triazol-4-yl)methyl (4aR,5R,6aS,6bR,8aR,9S,10S,12aR,12bR,14bS)-9-formyl-5,10-dihydroxy-2,2,6a,6b,9,12a-hexamethyl-1,3,4,5,6,6a,6b,7,8,8a,9,10,11,12,12a,12b,13,14b-octadecahydropicene-4a (2H)-carboxylate] yielded a melting point of 205 to 206 °C. This compound gave a 50% inhibitory concentration (IC50) in series [1] above 10 µM. Further, the IC50 in series [2] was above 10 µM. The same compound yielded an IC50 in series [3] above 10 µM. Also, the IC50 in series [4] was above 10 µM. The IC50 in series [5] is above 10 µM.
As to `COc1ccc(-n2cc(COC(=O)[C@]34CCC(C)(C)C[C@H]3C3=CC[C@@H]5[C@@]6(C)CC[C@H](O)[C@@](C)(C=O)[C@@H]6CC[C@@]5(C)[C@]3(C)C[C@H]4O)nn2)cc1OC` [Compound A7, (1-(3,4-dimethoxyphenyl)-1H-1,2,3-triazol-4-yl)methyl (4aR,5R,6aS,6bR,8aR,9S,10S,12aR,12bR,14bS)-9-formyl-5,10-dihydroxy-2,2,6a,6b,9,12a-hexamethyl-1,3,4,5,6,6a,6b,7,8,8a,9,10,11,12,12a,12b,13,14b-octadecahydropicene-4a (2H)-carboxylate], the IC50 in series [1], in series [2], in series [3], in series [4] and in series [5] was above 10 µM each time.
For the compound `CC1(C)CC[C@]2(C(=O)OCc3cn(-c4ccccc4)nn3)[C@H](O)C[C@]3(C)C(=CC[C@@H]4[C@@]5(C)CC[C@H](O)[C@@](C)(C=O)[C@@H]5CC[C@]43C)[C@@H]2C1` [Compound A1, (1-phenyl-1H-1,2,3-triazol-4-yl)methyl (4aR,5R,6aS,6bR,8aR,9S,10S,12aR,12bR,14bS)-9-formyl-5,10-dihydroxy-2,2,6a,6b,9,12a-hexamethyl-1,3,4,5,6,6a,6b,7,8,8a,9,10,11,12,12a,12b,13,14b-octadecahydropicene-4a (2H)-carboxylate], the melting point lay within 186 to 188 °C. In series [1], the IC50 is above 10 µM. For the same compound, in series [2], the 50% inhibitory concentration (IC50) was found to be 8.28 ± 2.1 µM. Besides, the IC50 in series [3] came to 3.61 ± 1.01 µM. In series [4], this compound registered an IC50 above 10 µM. For the same compound, the IC50 in series [5] was 8.96 ± 1.78 µM.
Compound `COc1ccc(-n2cnn(CCOC(=O)[C@]34CCC(C)(C)C[C@H]3C3=CC[C@@H]5[C@@]6(C)CC[C@H](O)[C@@](C)(C=O)[C@@H]6CC[C@@]5(C)[C@]3(C)C[C@H]4O)c2=O)cc1` [Compound C5, 2-(4-(4-methoxyphenyl)-5-oxo-4,5-dihydro-1H-1,2,4-triazol-1-yl)ethyl (4aR,5R,6aS,6bR,8aR,9S,10S,12aR,12bR,14bS)-9-formyl-5,10-dihydroxy-2,2,6a,6b,9,12a-hexamethyl-1,3,4,5,6,6a,6b,7,8,8a,9,10,11,12,12a,12b,13,14b-octadecahydropicene-4a (2H)-carboxylate] registered a melting point of 186 to 188 °C. Further, the 50% inhibitory concentration (IC50) in series [1] is above 10 µM. In addition, in series [2], the IC50 was above 10 µM. In series [3], this compound registered a concentration for half-maximal inhibition (IC50) of 3.21 ± 1.07 µM. Also, the half-inhibitory concentration (IC50) in series [4] was above 10 µM. In series [5], this compound gave a 50% inhibitory concentration (IC50) of 7.25 ± 1.72 µM.
